Laboratory results taken from PMC10451377, “Rationally Designed Pyrimidine Compounds: Promising Novel Antibiotics for the Treatment of Staphylococcus aureus-Associated Bovine Mastitis” (Antibiotics, 2023).
Values after ≈ are worked out from the molar mass of the structure shown. Read-outs that look alike come from different tables or passages of the source.

Assays:
[1] = system: Staphylococcus aureus CMRSA-10; experiment: Broth microdilution MIC; type: cell-based
Description: (§1) Reference strains for this study (S. aureus ATCC 29213, ATCC 29740 [bovine mastitis strain Newbould], S. epidermidis ATCC 12228, E. coli ATCC 35695, E. faecalis ATCC 29212) were obtained from the American Type Culture Collection (ATCC, Rockville, MD). S. aureus strains CMRSA-10 and CMRSA-2 were obtained from the Laboratoire de santé publique du Québec (LSPQ, Sainte-Anne-de-Bellevue, QC, Canada) and are Canadian CA-MRSA USA-300 and HA-MRSA USA-100 clones, respectively. The strain E. coli imp4213 (lptD), used as a control in MIC assays, is a derivative of E. coli ATCC 35695 (E. coli MC4100) with an increased membrane permeability. […] Other MRSA strains used in this study are clinical isolates of human origin obtained from the microbiology laboratory of the Centre Hospitalier Universitaire de Sherbrooke (CHUS, Sherbrooke, QC, Canada). Bovine mastitis strains (S. aureus, S. chromogenes, S. haemolyticus, S. hominis, S. simulans) were obtained from the Canadian Bovine Mastitis and Milk Quality Research Network (CBRQMN, St-Hyacinthe, QC, Canada). Among these strains, S. aureus 2117 is a high producer of biofilm and was used in the biofilm-eradication assay. S. epidermidis isolates were provided by Centre de Recherche en Infectiologie (CRI) de Québec (Québec, QC, Canada).

[2] = system: Staphylococcus aureus CMRSA-2; experiment: Broth microdilution MIC; type: cell-based
Description: as §1

[3] = system: Bacillus subtilis xpt-lacZ; experiment: Broth microdilution MIC; type: cell-based; conditions: B. subtilis xpt-lacZ, read-out: Broth Microdilution MIC
Bovine S. aureus = experiment: Susceptibility of isolate panel (MIC50, MIC90, range); type: cell-based, Staphylococcus aureus; conditions: Bovine S. aureus, 48 isolates, CAMHB with 2% NaCl
Description: as §1
(§2) The antibacterial activity of the most promising compound, PC206, was also evaluated against larger groups of clinical isolates of human and animal origin. The MIC50 and MIC90 values represented the concentrations of drug required to inhibit the growth of 50% and 90% of the bacterial strains tested, respectively.

MRSA = experiment: as above; type: cell-based, Staphylococcus aureus; conditions: 42 isolates, CAMHB with 2% NaCl
Description: as §1, §2

S. haemolitycus = experiment: as above; type: cell-based, S. haemolyticus; conditions: Staphylococcus haemolyticus, S. haemolitycus, 10 isolates, CAMHB with 2% NaCl
Description: as §1, §2

S. chromogenes = experiment: as above; type: cell-based; conditions: S. chromogenes, 5 isolates, CAMHB with 2% NaCl
Description: as §1, §2

S. epidermidis = experiment: as above; type: cell-based; conditions: S. epidermidis, 10 isolates, CAMHB with 2% NaCl
Description: as §1, §2

S. hominis = experiment: as above; type: cell-based; conditions: Staphylococcus hominis, S. hominis, 10 isolates, CAMHB with 2% NaCl
Description: as §1, §2

S. simulans = experiment: as above; type: cell-based; conditions: S. simulans, 5 isolates, CAMHB with 2% NaCl
Description: as §1, §2

[4] = system: guanine riboswitch-lacZ fusion construct (xpt-lacZ); experiment: Riboswitch regulation assay (lacZ-gene reporter); type: cell-based, B. subtilis
Description: The novel pyrimidine compounds, especially PC206, display specificity and potency against some staphylococci but not the other bacterial genus (Table 1 and Table 2). Because they are structurally derived from PC1 and PC2, these novel antibiotic candidates are expected to have the same mode of action. […] To verify this hypothesis, a strain of B. subtilis with a guanine riboswitch-lacZ fusion construct (named xpt-lacZ) integrated in its chromosome was exposed to these new antimicrobials. […] Therefore, it is an adequate reporter species. The metabolization of substrate ONPG into colored ONP was normalized by the bacterial suspension absorbance at 600 nm (Miller units) and relativized to the untreated condition.
β-galactosidase gene expression in the presence of the new pyrimidine analogs was studied, using an xpt-lacZ transcriptional fusion construct integrated in the genome of B. subtilis as previously described. Briefly, cultures were grown for 5 h at 35 °C in CAMHB, from an initial optical density of 0.05 at 600 nm (OD600), and then diluted 1:20 and in the presence of different concentrations of the compounds tested. Cultures were centrifuged for 10 min at 13,100 rpm, the supernatant was discarded, and pellets were suspended in a Z-buffer (NaH2PO4 40 mM, Na2HPO4 60 mM, MgSO4 1 mM, KCl 10 mM). Cultures OD600 were measured, and bacteria were then lysed with lysozyme (1 mg/mL) and β-mercaptoethanol 50 mM for 30 min. Lysates were centrifuged for 10 min at 13,100 rpm, and supernatants were incubated for 5 min at 30 °C with the substrate orthonitrophenyl-β-galactoside (ONPG; Sigma Aldrich). Reactions were stopped with Na2CO3 1M, supernatants OD420 were measured, and Miller units were calculated. A decrease in β-galactosidase activity indicated binding of the test compound to the riboswitch. Guanine and oxacillin were used as […] controls, respectively. The formula to measure Miller units is as follows: Millerunits=1000×OD420/t·v·OD600
Here, t represents the time of incubation with ONPG, and v represents the volume of the reaction.

[5] = system: Staphylococcus aureus ATCC 29213; experiment: Broth microdilution MIC; conditions: ATCC29213, read-out: Broth Microdilution MIC
[6] = system: Escherichia coli ΔlptD4213; experiment: microbe, parasite or virus in culture; type: cell-based; conditions: read-out: Broth Microdilution MIC
Description: as §1

MTT assay [7] = type: cell-based; conditions: human, HepG2 cells
MTT assay [8] = type: cell-based; conditions: bovine, MAC-T cells, 24 h
LDH release assay [9] = type: cell-based; conditions: human, HepG2 cells
LDH release assay [10] = type: cell-based; conditions: bovine, MAC-T cells, 24 h
[11] = system: Staphylococcus epidermidis ATCC 12228; experiment: Broth microdilution MIC; conditions: ATCC12228, read-out: Broth Microdilution MIC
[12] = system: Enterococcus faecalis ATCC 29212; experiment: Broth microdilution MIC; conditions: ATCC29212, read-out: Broth Microdilution MIC
[13] = system: Escherichia coli ATCC 35695; experiment: Broth microdilution MIC; conditions: ATCC35695, read-out: Broth Microdilution MIC
[14] = system: all tested bacterial strains, including non-staphylococci strains; experiment: Broth microdilution MIC, summary over all strains tested; conditions: read-out: MIC against all tested bacterial strains
[15] = Staphylococcus aureus, read-out: MIC50
[16] = Staphylococcus aureus, read-out: MIC90

## Cc1onc(-c2ccccc2)c1C(=O)N[C@@H]1C(=O)N2[C@@H]1SC(C)(C)[C@@H]2C(=O)O [OXA, oxacillin]
[1]; CMRSA10, S. aureus CMRSA-10, CAMHB supplemented with 2% NaCl, read-out: Broth Microdilution MIC
  MIC: 64 µg/mL (≈ 159 µM)
[2]; CMRSA2, S. aureus CMRSA-2, CAMHB supplemented with 2% NaCl, read-out: Broth Microdilution MIC
  MIC: > 64 µg/mL
[3]
  MIC: 0.25 µg/mL (≈ 0.623 µM)
Bovine S. aureus
  MIC Range: 0.03 to 32 µg/mL
Bovine S. aureus; [15]
  MIC50: 0.12 µg/mL (≈ 0.299 µM)
Bovine S. aureus; [16]
  MIC90: 0.25 µg/mL (≈ 0.623 µM)
MRSA
  MIC Range: 4 to 64 µg/mL
MRSA; [15]
  MIC50: 32 µg/mL (≈ 79.7 µM)
MRSA; [16]
  MIC90: 64 µg/mL (≈ 159 µM)
S. haemolitycus; read-out: MIC50
  MIC50: > 16 µg/mL
S. haemolitycus; read-out: MIC90
  MIC90: > 16 µg/mL
S. chromogenes
  MIC Range: 0.06 to 0.12 µg/mL
S. chromogenes; read-out: MIC50
  MIC50: 0.12 µg/mL (≈ 0.299 µM)
S. chromogenes; read-out: MIC90
  MIC90: 0.12 µg/mL (≈ 0.299 µM)
S. epidermidis
  MIC Range: 0.03 to 16 µg/mL
S. epidermidis; Staphylococcus epidermidis, read-out: MIC50
  MIC50: 2 µg/mL (≈ 4.98 µM)
S. epidermidis; Staphylococcus epidermidis, read-out: MIC90
  MIC90: > 16 µg/mL
S. hominis; read-out: MIC50
  MIC50: 1 µg/mL (≈ 2.49 µM)
S. hominis; read-out: MIC90
  MIC90: > 16 µg/mL
S. simulans
  MIC Range: 0.06 to 0.12 µg/mL
S. simulans; Staphylococcus simulans, read-out: MIC50
  MIC50: 0.06 µg/mL (≈ 0.149 µM)
S. simulans; Staphylococcus simulans, read-out: MIC90
  MIC90: 0.12 µg/mL (≈ 0.299 µM)
[4]; concentrations below the MIC of 0.25 µg/mL
  Effect on Miller units: did not affect the expression of Miller units
[5]
  MIC: 0.25 µg/mL (≈ 0.623 µM)

## CCCNc1cc(N)nc(N)n1 [PC371]
[1]; CMRSA10, read-out: Broth Microdilution MIC
  MIC: > 128 µg/mL
[2]; CMRSA2, read-out: Broth Microdilution MIC
  MIC: > 128 µg/mL
[6]
  MIC: > 128 µg/mL
[3]
  MIC: > 128 µg/mL
[4]; 512 and 1024 μg/mL, one experiment
  Effect on Miller units: did not have any effect on the reporter gene expression
MTT assay [7]
  CC50 at 24 h: > 600 µM
MTT assay [8]
  CC50 at 24 h: > 600 µM
LDH release assay [9]
  CC50 at 24 h: > 600 µM
LDH release assay [10]
  CC50 at 24 h: > 600 µM
[5]
  MIC: > 128 µg/mL
[11]
  MIC: > 128 µg/mL
[12]
  MIC: > 128 µg/mL
[13]
  MIC: > 128 µg/mL
[14]
  MIC: > 128 µg/mL
